Legend:
IvAIS1 [1] = assay: GC-MS product assay, t-anol formation; type: biochemical, Illicium verum; settings: NADPH co-substrate; pH 7.0, 40 °C
IvAIS1 [2] = assay: GC-MS product assay, isoeugenol formation; type: biochemical, Illicium verum; settings: NADPH co-substrate; pH 7.0, 45 °C

Km (IvAIS1 [1]) | Km (IvAIS1 [2]) | Structure (SMILES)
480 ± 86.6 µM | – | CC(=O)OC/C=C/c1ccc(O)cc1 [coumaryl acetate]
– | 438 ± 44.3 µM | COc1cc(/C=C/COC(C)=O)ccc1O [coniferyl acetate]
